Legend:
Test in all cases: selective drug sensitivity score (sDSS, relative to normal bone marrow) (sDSS (score)); higher = more potent and effective on the cell line relative to normal bone marrow cells
Details in all cases: 72 h
380 = test system: 380
ALL-SIL = test system: ALL-SIL
COG-LL-319h = test system: COG-LL-319h
COG-LL-394h = test system: COG-LL-394h
DND-41 = test system: DND-41
HAL-01 = test system: HAL-01
HPB-ALL = test system: HPB-ALL
JURKAT = test system: JURKAT
KASUMI-10 = test system: KASUMI-10
KASUMI-9 = test system: KASUMI-9
LC4-1 = test system: LC4-1
MHH-CALL-3 = test system: MHH-CALL-3
MN-60 = test system: MN-60
MOLT-14 = test system: MOLT-14
NALL-1 = test system: NALL-1
P12-ICHIKAWA = test system: P12-ICHIKAWA
P30-OHKUBO = test system: P30-OHKUBO
RCH-ACV = test system: RCH-ACV
SEM cells = test system: SEM cells
TANOUE = test system: TANOUE
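Further: ALL cell lines in 384-well plates, five doses spanning 10,000-fold, each plate scaled between vehicle and 100 µmol/L benzalkonium chloride controls, sDSS an adapted area-under-curve metric.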

SMILES	selective drug sensitivity score 380	selective drug sensitivity score (ALL-SIL)	selective drug sensitivity score (COG-LL-319h)	selective drug sensitivity score (COG-LL-394h)	selective drug sensitivity score (DND-41)	selective drug sensitivity score (HAL-01)	selective drug sensitivity score (HPB-ALL)	selective drug sensitivity score (JURKAT)	selective drug sensitivity score (KASUMI-10)	selective drug sensitivity score (KASUMI-9)	selective drug sensitivity score (LC4-1)	selective drug sensitivity score (MHH-CALL-3)	selective drug sensitivity score (MN-60)	selective drug sensitivity score (MOLT-14)	selective drug sensitivity score (NALL-1)	selective drug sensitivity score (P12-ICHIKAWA)	selective drug sensitivity score (P30-OHKUBO)	selective drug sensitivity score (RCH-ACV)	selective drug sensitivity score (SEM cells)	selective drug sensitivity score (TANOUE)
C[C@H]1C[C@@H]2[C@H]([C@@H](O)C[C@@]3(C)[C@H]2CC[C@]3(O)C(=O)CO)[C@@]2(C)C=CC(=O)C=C12 [Methylprednisolone] (top concentration 10000 nM)	27.2	10.9	14.2	-2.3	31.6	1.5	5	-2	-2.3	4	5.9	33.2	-1.5	-2.3	24.8	19.8	18.6	30.2	7.9	-2.3
FC(F)(F)c1ccc(/C=C/c2nc(COc3ccc(CCCCn4ccnn4)cc3)co2)cc1 [Mubritinib] (top concentration 1000 nM)	0.66	8.66	11.1	16.2	5.46	3.06	8.86	24	-2.24	3.56	4.86	3.06	17.6	4.46	-2.24	20.7	7.06	12.7	6.56	18.7
COc1cc2c(cc1OC(C)C)[C@H](c1ccc(Cl)cc1)N(c1ccc(N(C)C[C@H]3CC[C@H](N4CCN(C)C(=O)C4)CC3)cc1)C(=O)C2 [NVP-CGM097] (top concentration 25000 nM)	11.4	-6.74	10.8	6.56	-5.64	10.6	-3.14	-4.44	11.7	14.5	10.1	13.1	-0.44	8.36	-6.34	-5.64	10.2	10.6	-4.84	-3.04
CCOc1cc2ncc(C#N)c(Nc3ccc(OCc4ccccn4)c(Cl)c3)c2cc1NC(=O)/C=C/CN(C)C [Neratinib] (top concentration 1000 nM)	4.98	1.08	6.58	5.48	-0.62	-0.42	2.38	1.48	3.68	3.68	3.58	4.98	0.38	4.28	-0.32	1.28	2.78	5.38	1.28	-0.72
COc1ncc(-c2ccc3nccc(-c4ccnnc4)c3c2)cc1NS(=O)(=O)c1ccc(F)cc1F [Omipalisib] (top concentration 1000 nM)	22.2	4.6	9.8	-1.1	-0.8	20.1	3.8	4.2	1.6	12.6	1.6	11.4	8.9	-2.2	4.5	4	18.6	30	9.4	-4
CN1CCN(c2cc(C(=O)Nc3ccc4c(c3)-c3c(c(C(N)=O)nn3-c3ccc(F)cc3)CC4)c(Cl)cn2)CC1 [PHA-408] (top concentration 10000 nM)	5.68	2.58	5.08	-1.22	3.48	2.58	-0.92	0.18	0.18	2.48	3.98	-0.72	-4.12	-0.22	-0.82	-0.02	1.48	5.28	-2.02	-4.92
OC[C@H]1O[C@@H](n2cnc3c2N=CNC[C@H]3O)C[C@@H]1O [Pentostatin] (top concentration 10000 nM)	-0.44	-0.44	3.06	-0.44	-0.44	0.36	-0.44	-0.44	-0.44	-0.44	-0.44	-0.44	-0.44	-0.24	-0.44	-0.44	-0.44	-0.44	-0.44	0.36
CC(C)N(C[C@H]1O[C@@H](n2cnc3c(N)ncnc32)[C@H](O)[C@@H]1O)[C@H]1C[C@@H](CCc2nc3cc(C(C)(C)C)ccc3[nH]2)C1 [Pinometostat] (top concentration 1000 nM)	0	0.2	0	0	0	0	0	0	0	0	0	0	0.3	0	0	0	0	0	0	0
Cc1ccc(=O)n(-c2ccccc2)c1 [Pirfenidone] (top concentration 10000 nM)	0	0	1.2	0	0	0	0	0	0	0	0	0	0	0	0	0	0	0	0	0
NCCNc1ccc(NCCN)c2c1C(=O)c1ccncc1C2=O [Pixantrone] (top concentration 10000 nM)	-2.76	-2.76	-2.76	-2.66	-1.76	-1.36	-2.66	-2.76	-1.36	-0.36	-2.76	-2.76	-2.76	-2.76	-2.76	-2.76	-1.06	-2.76	-1.36	-2.76
c1cc(CN2CCCNCCNCCCNCC2)ccc1CN1CCCNCCNCCCNCC1 [Plerixafor] (top concentration 10000 nM)	0	0	0	0	0	0	0	0	0	0	0	0	0	0	0	0	0	0	0	0
O=C(c1ccc(OCCN2CCCCC2)cc1)c1c(-c2ccc(O)cc2)sc2cc(O)ccc12 [Raloxifene] (top concentration 10000 nM)	-2.28	1.72	-2.28	0.42	4.52	1.82	5.02	-0.58	-2.28	-0.68	-0.38	-2.28	1.92	2.92	-2.28	-0.48	1.82	0.02	1.62	-1.38
CN(C)C(=O)c1cc2cnc(Nc3ccc(N4CCNCC4)cn3)nc2n1C1CCCC1 [Ribociclib] (top concentration 10000 nM)	-2.02	-1.12	2.18	-2.02	1.68	0.38	2.78	0.48	0.08	6.38	4.18	3.18	-1.62	1.18	-1.62	2.18	6.58	8.08	2.28	-2.02
CN1CCN(CCOc2cc(OC3CCOCC3)c3c(Nc4c(Cl)ccc5c4OCO5)ncnc3c2)CC1 [Saracatinib] (top concentration 10000 nM)	-2.02	17.7	12.8	-2.02	2.18	-1.32	-1.02	-0.62	1.48	2.98	2.98	0.08	3.38	7.98	-2.02	0.08	5.58	7.28	0.08	-2.02
C=CC(=O)Nc1cccc(Nc2nc(Nc3ccc(OCCOC)cc3)ncc2F)c1 [Spebrutinib] (top concentration 1000 nM)	-0.16	1.64	-0.06	-0.16	-0.16	8.34	-0.16	0.74	3.64	4.84	0.54	2.34	-0.16	-0.16	6.34	-0.16	4.64	4.14	3.74	-0.16
C[C@@H]1CN(Cc2ccc(F)cc2)[C@@H](C)CN1C(=O)c1cc2c(C(=O)C(=O)N(C)C)cn(C)c2cc1Cl [Talmapimod] (top concentration 10000 nM)	0	2.1	0	0.7	0.5	0	0	0.9	0	0	0	0	0	0	0	0	0.2	4.9	0.4	0
C[C@@H](C(=O)O)c1ccc(-c2ccccc2)c(F)c1 [Tarenflurbil] (top concentration 10000 nM)	-0.16	-0.16	-0.16	-0.16	0.54	4.74	-0.16	-0.16	-0.16	6.84	0.64	-0.16	-0.16	-0.16	4.34	-0.16	-0.16	-0.16	-0.16	4.74
CNC(=O)c1cc(COc2nnc(Nc3ccc(Cl)cc3)c3ccoc23)ccn1 [Telatinib] (top concentration 10000 nM)	0	0	0	0	0	1.8	0.9	0	0	1	0.7	0	0	0	0	0	2.9	0.2	0.2	0
